Source: patent US10555909B2, “Microencapsulation of B-alanine” (INNOBIO CORPORATION LIMITED, priority 2015, dated 2020)
“And” between values parts separate entries of the source, which are not always exact repeats. Equal values may be shown once.

Assays:
[1] = Size distribution of β-alanine before and after sustained-release microencapsulation; type: physicochemical
[2] = Release rate experiment, USP <711> Dissolution, Apparatus 2, 50 rpm, delayed-release method B; type: physicochemical
Description: Regarding to the measurement to the release rate in the present invention, the release rate experiment in 0.1N hydrochloric acid solution and pH6.8 phosphate buffer is conducted referring to USP<711>DISSOLUTIO and using Apparatus 2 with a rotate speed of 50 rpm by DELAYED-RELEASE DOSAGE FORMS method B.

[3] = Tingling sensation evaluation after oral administration; type: in vivo
Description: The evaluation method of the tingling sensation in the present invention is that: a subject respectively administrates unsustained-release microencapsulated material containing a certain amount of β-alanine and sustained-release microencapsulated β-alanine. The time, intensity and duration of having the abnormal sensation are recorded.
The tingling sensation after oral administration of the β-alanine products A and D in Table 1 was evaluated according to a tingling sensation evaluation method, and an administration dosage, based on the β-alanine, is 22.8 mg/Kg (body weight).
In the tingling evaluation experiment in Table 5, the dosage of the subject was 45.7 mg/kg (body weight).

Compound: NCCC(=O)O [Product A, β-alanine]
- Size distribution 300-450 μm ([1]; fraction 300-450 μm): 0%
- Size distribution 450-900 μm ([1]; fraction 450-900 μm): 43.7%
- Size distribution 900-1000 μm ([1]; fraction 900-1000 μm): 56.3%
- Release in 0.1N hydrochloric acid solution (in words) ([2]; 0.1N hydrochloric acid solution): quickly and completely released
- Release in pH6.8 phosphate buffer (in words) ([2]; pH6.8 phosphate buffer): quickly and completely released
- Administration evaluation: Intensity ([3]; 22.8 mg/Kg body weight based on β-alanine, one value per subject, 0 no sensation, 1-5 acceptable, 6-10 unacceptable): 6 (2×) and 7
- Duration of the abnormal sensation (lasting for) ([3]; 22.8 mg/Kg, per subject): 45 min and lasting for 30 min. and 1 h
- Time of having the abnormal sensation (onset) ([3]; 22.8 mg/Kg, per subject): 15 min and sensation in the hands, face and ears in 10 min, and 25 min
- Dissolution in water (in words): easy to be dissolved in water
